Data on ten compounds can be found in patent publication US11780830B2, “Triazolone derivatives or salts thereof and pharmaceutical compositions comprising the same” (YUHAN CORPORATION, priority 2018, dated 2023).

One may read the IC50 as the midpoint of a concentration-inhibition curve.

The structures appear in SMILES notation. Counter-ions that a name gives are not always drawn. Bounds are passed on as bounds.

What all share (type): biochemical
The target in assay [1] is T1, recombinant human MAO-B (monoamine oxidase-B) (Homo sapiens, UniProt P27338).
T1 construct: purchased Sigma-Aldrich
T1 sequence (P27338 1-520): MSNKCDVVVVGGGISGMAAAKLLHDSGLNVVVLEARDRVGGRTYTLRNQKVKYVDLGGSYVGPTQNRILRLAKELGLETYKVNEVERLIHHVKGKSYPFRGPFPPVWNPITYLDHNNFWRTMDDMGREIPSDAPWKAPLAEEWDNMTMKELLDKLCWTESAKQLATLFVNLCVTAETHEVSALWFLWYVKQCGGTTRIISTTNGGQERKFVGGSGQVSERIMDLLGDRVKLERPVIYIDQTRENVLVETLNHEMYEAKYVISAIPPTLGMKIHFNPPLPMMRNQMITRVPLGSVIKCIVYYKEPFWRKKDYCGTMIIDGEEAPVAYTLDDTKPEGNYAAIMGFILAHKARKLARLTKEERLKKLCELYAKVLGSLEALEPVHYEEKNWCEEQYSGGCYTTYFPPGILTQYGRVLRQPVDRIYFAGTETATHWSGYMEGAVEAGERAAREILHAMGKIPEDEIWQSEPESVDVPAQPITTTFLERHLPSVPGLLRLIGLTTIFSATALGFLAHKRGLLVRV
The assay can be described thus: Activity on recombinant human MAO-B, method similar to the VAP-1 assay. The settings on record: substrate 1 mM benzylamine; read-out: Inhibitory Activity (IC50, nM) MAO-B. In short, it runs like this: (§1)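 8-point, 1:3 dose-response, four-parameter logistic IC50 from reduction in fluorescence rate versus DMSO control. HRP/Amplex Red detection of H2O2 (ex 544, em 590 nm) after 30 min, 37 °C compound–enzyme preincubation in pH 7.4 phosphate buffer. MAO-A substrate: 0.5 mM tyramine; MAO-B: 1 mM benzylamine.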

Assay [2] has as its target T2, recombinant human DAO (diamine oxidase) (Homo sapiens, UniProt P19801).
T2 construct: purchased R&D systems
T2 sequence (P19801 20-751): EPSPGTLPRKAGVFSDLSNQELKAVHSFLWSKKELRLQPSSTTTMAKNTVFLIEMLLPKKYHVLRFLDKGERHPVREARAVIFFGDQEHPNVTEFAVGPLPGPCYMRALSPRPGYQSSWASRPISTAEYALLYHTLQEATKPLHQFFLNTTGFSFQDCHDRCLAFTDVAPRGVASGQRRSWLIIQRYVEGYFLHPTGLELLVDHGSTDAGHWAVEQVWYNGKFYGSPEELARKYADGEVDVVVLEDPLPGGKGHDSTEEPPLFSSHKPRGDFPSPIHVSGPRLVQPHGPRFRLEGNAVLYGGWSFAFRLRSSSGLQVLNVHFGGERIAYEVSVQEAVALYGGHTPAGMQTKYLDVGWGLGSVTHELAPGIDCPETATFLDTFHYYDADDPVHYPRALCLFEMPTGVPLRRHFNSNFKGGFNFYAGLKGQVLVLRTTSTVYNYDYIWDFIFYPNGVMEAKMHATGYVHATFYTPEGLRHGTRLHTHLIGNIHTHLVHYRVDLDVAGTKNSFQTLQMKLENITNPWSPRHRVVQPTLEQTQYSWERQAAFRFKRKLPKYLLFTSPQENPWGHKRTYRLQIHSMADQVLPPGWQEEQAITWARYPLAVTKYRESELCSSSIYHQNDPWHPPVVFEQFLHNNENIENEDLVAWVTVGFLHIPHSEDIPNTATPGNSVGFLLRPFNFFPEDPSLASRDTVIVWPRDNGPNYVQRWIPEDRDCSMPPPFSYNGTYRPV
Description: Activity on recombinant human DAO, method similar to the VAP-1 assay. The note with it: substrate 1 mM putrescine; read-out: Inhibitory Activity (IC50, nM) DAO. The gist of the method:
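Inhibition of recombinant human diamine oxidase (DAO, R&D systems) was assessed by the same approach as the VAP-1 assay, using 1 mM putrescine as substrate. Hydrogen peroxide formed was detected through an HRP-coupled Amplex Red reaction yielding fluorescent resorufin, read at 544 nm excitation and 590 nm emission. IC50 values came from four-parameter logistic fitting in GraphPad Prism.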

In assay [3] the target is T3, recombinant human VAP-1 (Homo sapiens, UniProt Q16853).
T3 construct: purchased R&D systems
T3 sequence (Q16853 1-763): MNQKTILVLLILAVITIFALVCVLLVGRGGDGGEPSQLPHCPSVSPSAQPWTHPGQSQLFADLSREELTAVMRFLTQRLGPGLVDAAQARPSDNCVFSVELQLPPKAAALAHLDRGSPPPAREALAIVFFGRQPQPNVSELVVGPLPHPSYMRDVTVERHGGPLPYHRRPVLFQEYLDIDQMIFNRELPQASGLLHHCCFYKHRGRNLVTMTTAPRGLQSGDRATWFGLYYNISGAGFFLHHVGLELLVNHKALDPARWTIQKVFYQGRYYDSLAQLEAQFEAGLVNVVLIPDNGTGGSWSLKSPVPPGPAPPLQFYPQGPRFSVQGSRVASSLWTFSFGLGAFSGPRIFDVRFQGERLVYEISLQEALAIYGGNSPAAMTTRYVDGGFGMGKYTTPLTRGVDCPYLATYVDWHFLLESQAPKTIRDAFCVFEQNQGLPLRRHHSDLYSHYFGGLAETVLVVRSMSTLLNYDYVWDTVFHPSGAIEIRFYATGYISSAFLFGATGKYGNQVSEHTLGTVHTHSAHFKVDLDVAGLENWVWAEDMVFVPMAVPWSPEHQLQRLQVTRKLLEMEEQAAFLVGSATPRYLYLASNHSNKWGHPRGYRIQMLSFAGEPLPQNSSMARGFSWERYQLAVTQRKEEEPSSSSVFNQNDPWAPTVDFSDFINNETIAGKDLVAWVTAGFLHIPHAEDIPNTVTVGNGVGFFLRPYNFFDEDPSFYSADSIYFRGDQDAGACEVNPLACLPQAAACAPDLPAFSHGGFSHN
Description: Activity on recombinant human VAP-1, HRP-coupled Amplex Red hydrogen peroxide assay. The settings on record: substrate 1 mM benzylamine; compound incubated with enzyme at 37° C. for 30 minutes; pH 7.4; read-out: Inhibitory Activity (IC50, nM) human VAP-1. In short, it runs like this:
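Compounds were preincubated with purified enzyme in 50 mM sodium phosphate pH 7.4 at 37 °C for 30 min, then 200 uM Amplex Red, 1 mM benzylamine and 1 U/mL HRP were added. Resorufin fluorescence (ex 544/em 590 nm) was followed over 1-2 h; IC50 came from 4-parameter fits of signal-rate inhibition.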

Assay [4] concerns the target T4, recombinant human MAO-A (monoamine oxidase-A) (Homo sapiens, UniProt P21397).
T4 construct: purchased Sigma-Aldrich
T4 sequence (P21397 1-527): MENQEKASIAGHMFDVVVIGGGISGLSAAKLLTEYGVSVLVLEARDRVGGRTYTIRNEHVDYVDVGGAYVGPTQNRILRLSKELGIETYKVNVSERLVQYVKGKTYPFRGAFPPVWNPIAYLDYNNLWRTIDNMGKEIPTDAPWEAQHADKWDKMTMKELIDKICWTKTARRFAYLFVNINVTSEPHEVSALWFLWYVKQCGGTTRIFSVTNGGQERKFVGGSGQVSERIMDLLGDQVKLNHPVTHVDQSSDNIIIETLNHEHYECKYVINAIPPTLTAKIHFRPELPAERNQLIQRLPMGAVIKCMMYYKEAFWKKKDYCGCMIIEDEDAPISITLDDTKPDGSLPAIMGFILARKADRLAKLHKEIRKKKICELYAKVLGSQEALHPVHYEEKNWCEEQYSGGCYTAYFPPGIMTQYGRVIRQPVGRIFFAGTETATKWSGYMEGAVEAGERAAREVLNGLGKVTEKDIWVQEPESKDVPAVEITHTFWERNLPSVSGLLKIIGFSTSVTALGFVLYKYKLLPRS
Description: Activity on recombinant human MAO-A, method similar to the VAP-1 assay. The note with it: substrate 0.5 mM tyramine; read-out: Inhibitory Activity (IC50, nM) MAO-A. The gist of the method:
as §1

For `COC(=O)c1cc(F)cc(-c2ccc(Cn3cnn(C/C(=C/F)CN)c3=O)s2)c1` [Example 13, methyl 3-[5-(1-[(2E)-2-(aminomethyl)-3-fluoroprop-2-en-1-yl]-5-oxo-1,5-dihydro-4H-1,2,4-triazol-4-ylmethyl)thiophen-2-yl]-5-fluorobenzoate hydrochloride], the half-inhibitory concentration (IC50) in assay [1] was 260 nM; in assay [2], 320 nM; in assay [3] it was 0.8 nM; in assay [4] it was over 100000 nM.

Take `NC/C(=C\F)Cn1ncn(Cc2ccc(-c3cccc(-c4cc[nH]n4)c3)s2)c1=O` [Example 184, 2-[(2E)-2-(aminomethyl)-3-fluoroprop-2-en-1-yl]-4-({5-[3-(1H-pyrazol-3-yl)phenyl]thiophen-2-yl}methyl)-2,4-dihydro-3H-1,2,4-triazol-3-one]: the IC50 in assay [1] is 330 nM; in assay [2], 3800 nM; in assay [3], 3.4 nM; in assay [4] it was over 100000 nM.

`NC/C(=C\F)Cn1ncn(Cc2ccc(-c3ccc4c(c3)COC(=O)N4)s2)c1=O` [Example 101, 6-[5-(1-[(2E)-2-(aminomethyl)-3-fluoroprop-2-en-1-yl]-5-oxo-1,5-dihydro-4H-1,2,4-triazol-4-ylmethyl)thiophen-2-yl]-1,4-dihydro-2H-3,1-benzoxazin-2-one hydrochloride]: the concentration for half-maximal inhibition (IC50) in assay [1] is 540 nM; in assay [2], 900 nM; in assay [3], 0.2 nM; in assay [4], over 100000 nM.

Turning to `CC(C)n1nccc1-c1ccc(Cn2cnn(C/C(=C/F)CN)c2=O)s1` [Example 161, 2-[(2E)-2-(aminomethyl)-3-fluoroprop-2-en-1-yl]-4-({5-[1-(propan-2-yl)-1H-pyrazol-5-yl]thiophen-2-yl}methyl)-2,4-dihydro-3H-1,2,4-triazol-3-one], the concentration for half-maximal inhibition (IC50) in assay [1] is 15 nM; in assay [2] it was 4300 nM; in assay [3], 3.7 nM; in assay [4] it was over 100000 nM.

On to `CN1C(=O)COc2cc(-c3ccc(Cn4cnn(C/C(=C/F)CN)c4=O)s3)ccc21` [Example 86, 7-[5-[[1-[(E)-2-(aminomethyl)-3-fluoro-allyl]-5-oxo-1,2,4-triazol-4-yl]methyl]-2-thienyl]-4-methyl-1,4-benzoxazin-3-one hydrochloride], for which the IC50 in assay [1] was 2500 nM; in assay [2], 380 nM; in assay [3], 0.2 nM; in assay [4], over 100000 nM.

Take `NC/C(=C\F)Cn1ncn(Cc2ccc(-c3ccc4c(c3)CCCN4)s2)c1=O` [Example 110, 2-[(2E)-2-(aminomethyl)-3-fluoroprop-2-en-1-yl]-4-[5-(1,2,3,4-tetrahydroquinolin-6-yl)thiophen-2-yl]methyl-2,4-dihydro-3H-1,2,4-triazol-3-one hydrochloride]: the concentration for half-maximal inhibition (IC50) is 370 nM in assay [1], 220 nM in assay [2], 0.9 nM in assay [3] and 32000 nM in assay [4].

For the compound `NC/C(=C\F)Cn1ncn(CCc2ccc(-c3ccc(N4CCNCC4)cc3)s2)c1=O` [Example 221, 2-[(2E)-2-(aminomethyl)-3-fluoroprop-2-en-1-yl]-4-(2-{5-[4-(piperazin-1-yl)phenyl]thiophen-2-yl}ethyl)-2,4-dihydro-3H-1,2,4-triazol-3-one], the concentration for half-maximal inhibition (IC50) is over 100000 nM in assay [1], 1420 nM in assay [2], 1.8 nM in assay [3] and over 100000 nM in assay [4].

Consider `NC/C(=C\F)Cn1ncn(Cc2ccc(-c3ccc4oc(=O)[nH]c4c3)s2)c1=O` [Example 72, 5-[5-(1-[(2E)-2-(aminomethyl)-3-fluoroprop-2-en-1-yl]-5-oxo-1,5-dihydro-4H-1,2,4-triazol-4-ylmethyl)thiophen-2-yl]-1,3-benzooxazol-2(3H)-one hydrochloride], for which the concentration for half-maximal inhibition (IC50) in assay [1] was under 10 nM; in assay [2] it was 230 nM; in assay [3], 0.4 nM; in assay [4] it was at least 100000 nM.

`NC/C(=C\F)Cn1ncn(Cc2ccc(C#Cc3cccc(N)c3)s2)c1=O` [Example 125, 2-[(2E)-2-(aminomethyl)-3-fluoroprop-2-en-1-yl]-4-(5-[(3-aminophenyl)ethynyl]thiophen-2-ylmethyl)-2,4-dihydro-3H-1,2,4-triazol-3-one hydrochloride]: the IC50 in assay [1] is 2100 nM; in assay [2], 1600 nM; in assay [3], 3.5 nM; in assay [4] it was over 100000 nM.

On to `Cc1nn(C)cc1-c1ccc(Cn2cnn(C/C(=C/F)CN)c2=O)s1` [Example 157, 2-[(2E)-2-(aminomethyl)-3-fluoroprop-2-en-1-yl]-4-{[5-(1,3-dimethyl-1H-pyrazol-4-yl)thiophen-2-yl]methyl}-2,4-dihydro-3H-1,2,4-triazol-3-one], for which the IC50 in assay [1] is 330 nM; in assay [2], 1700 nM; in assay [3] it was 2.6 nM; in assay [4] it was over 100000 nM.
